Results reported in patent US20230406843A1, “Progranulin Modulators and Methods of Using the Same” (ARKUDA THERAPEUTICS, priority 2020, published 2023).

Test system: progranulin
Test: Progranulin induction cellular assay (ELISA of secreted mouse PGRN)
Assay type: cell-based
Conditions: Mus musculus, BV-2, read-out: EC50 μM
Summary of the method: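 Secreted mouse PGRN in culture medium is measured by ELISA. Cells tested are BV-2, primary cortical neurons and primary microglia. BV-2 cells are plated a day ahead, allowed 1 h to attach, then incubated 16 h.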

SMILES	EC50 [µM]
C=CCO[C@H]1CO[C@@H](C(=O)N2CCc3ccccc3[C@@H]2c2ccc(F)cc2)C[C@@H]1N [Compound 5476, ((2R,4S,5R)-5-(allyloxy)-4-aminotetrahydro-2H-pyran-2-yl)((S)-1-(4-fluorophenyl)-3,4-dihydroisoquinolin-2(1H)-yl)methanone]	0.001
CC(=O)N[C@H]1CO[C@@H](C(=O)N2CCc3ccccc3[C@@H]2c2ccc(F)cc2)C[C@@H]1N [Compound 5512, N-((3R,4S,6R)-4-amino-6-((S)-1-(4-fluorophenyl)-1,2,3,4-tetrahydroisoquinoline-2-carbonyl)tetrahydro-2H-pyran-3-yl)acetamide]	0.005

Same assay, conditions: progranulin induction assay; mouse pMG, primary cortical neurons and BV-2 cell lines named, cell type not given; ELISA-based readout; read-out: EC50

SMILES	EC50 [µM]
CS(=O)(=O)N[C@@H]1CO[C@@H](C(=O)N2CCc3ccccc3[C@@H]2c2ccc(F)cc2)C[C@@H]1N [Compound 5428, N-((3S,4S,6R)-4-amino-6-((S)-1-(4-fluorophenyl)-1,2,3,4-tetrahydroisoquinoline-2-carbonyl)tetrahydro-2H-pyran-3-yl)methanesulfonamide]	> 10
O=C([C@H]1C[C@@H]2NC=N[C@@H]2CO1)N1CCc2ccccc2[C@@H]1c1ccc(F)cc1 [Compound 5430, ((S)-1-(4-fluorophenyl)-3,4-dihydroisoquinolin-2(1H)-yl)((3aS,6R,7aS)-1,3a,4,6,7,7a-hexahydropyrano[3,4-d]imidazol-6-yl)methanone]	> 0.3
CN[C@@H]1CO[C@@H](C(=O)N2CCc3ccccc3[C@@H]2c2ccc(F)cc2)C[C@@H]1O [Compound 5431, ((S)-1-(4-fluorophenyl)-3,4-dihydroisoquinolin-2(1H)-yl)((2R,4S,5R)-4-hydroxy-5-(methylamino)tetrahydro-2H-pyran-2-yl)methanone]	0.029
O=C([C@H]1C[C@@H]2OCCN[C@@H]2CO1)N1CCc2ccccc2[C@@H]1c1ccc(F)cc1 [Compound 5432, ((S)-1-(4-fluorophenyl)-3,4-dihydroisoquinolin-2(1H)-yl)((4aR,7R,8aS)-hexahydro-2H,5H-pyrano[4,3-b][1,4]oxazin-7-yl)methanone]	0.113
N[C@H]1C[C@H](C(=O)N2CCc3ccccc3[C@@H]2c2ccc(F)cc2)OC[C@H]1OC(F)F [Compound 5443, ((2R,4S,5S)-4-amino-5-(difluoromethoxy)tetrahydro-2H-pyran-2-yl)((S)-1-(4-fluorophenyl)-3,4-dihydroisoquinolin-2(1H)-yl)methanone]	0.151
CN(C)[C@H]1C[C@H](C(=O)N2CCc3ccccc3[C@@H]2c2ccc(F)cc2)OC[C@H]1O [Compound 5447, ((2R,4S,5S)-4-(dimethylamino)-5-hydroxytetrahydro-2H-pyran-2-yl)((S)-1-(4-fluorophenyl)-3,4-dihydroisoquinolin-2(1H)-yl)methanone]	0.659
O=C([C@H]1C[C@@H]2NCCO[C@@H]2CO1)N1CCc2ccccc2[C@@H]1c1ccc(F)cc1 [Compound 5448, ((S)-1-(4-fluorophenyl)-3,4-dihydroisoquinolin-2(1H)-yl)((4aS,7R,8aS)-octahydropyrano[3,4-b][1,4]oxazin-7-yl)methanone]	0.044
O=C([C@H]1C[C@@H]2NCCN[C@H]2CO1)N1CCc2ccccc2[C@@H]1c1ccc(F)cc1 [Compound 5461, ((S)-1-(4-fluorophenyl)-3,4-dihydroisoquinolin-2(1H)-yl)((4aR,7R,8aS)-octahydro-2H-pyrano[3,4-b]pyrazin-7-yl)methanone]	0.01
CN1CCN[C@H]2C[C@H](C(=O)N3CCc4ccccc4[C@@H]3c3ccc(F)cc3)OC[C@@H]21 [Compound 5462, ((S)-1-(4-fluorophenyl)-3,4-dihydroisoquinolin-2(1H)-yl)((4aR,7R,8aS)-4-methyloctahydro-2H-pyrano[3,4-b]pyrazin-7-yl)methanone]	0.003
C[C@H]1CN[C@H]2C[C@H](C(=O)N3CCc4ccccc4[C@@H]3c3ccc(F)cc3)OC[C@@H]2O1 [Compound 5471, ((S)-1-(4-fluorophenyl)-3,4-dihydroisoquinolin-2(1H)-yl)((3S,4aR,7R,8aS)-3-methyloctahydropyrano[3,4-b][1,4]oxazin-7-yl)methanone]	0.109
C[C@@H]1CN[C@H]2C[C@H](C(=O)N3CCc4ccccc4[C@@H]3c3ccc(F)cc3)OC[C@@H]2O1 [Compound 5472, ((S)-1-(4-fluorophenyl)-3,4-dihydroisoquinolin-2(1H)-yl)((3R,4aR,7R,8aS)-3-methyloctahydropyrano[3,4-b][1,4]oxazin-7-yl)methanone]	0.013
O=C([C@H]1C[C@@H]2NC[C@@H](C(F)(F)F)O[C@H]2CO1)N1CCc2ccccc2[C@@H]1c1ccc(F)cc1 [Compound 5473, ((S)-1-(4-fluorophenyl)-3,4-dihydroisoquinolin-2(1H)-yl)((3S,4aR,7R,8aS)-3-(trifluoromethyl)octahydropyrano[3,4-b][1,4]oxazin-7-yl)methanone]	0.621
O=C([C@H]1C[C@@H]2NC[C@H](C(F)(F)F)O[C@H]2CO1)N1CCc2ccccc2[C@@H]1c1ccc(F)cc1 [Compound 5474, ((S)-1-(4-fluorophenyl)-3,4-dihydroisoquinolin-2(1H)-yl)((3R,4aR,7R,8aS)-3-(trifluoromethyl)octahydropyrano[3,4-b][1,4]oxazin-7-yl)methanone]	1.51
N[C@H]1C[C@H](C(=O)N2CCc3ccccc3[C@@H]2c2ccc(F)cc2)OC[C@@H]1OCC(F)(F)F [Compound 5475, ((2R,4S,5R)-4-amino-5-(2,2,2-trifluoroethoxy)tetrahydro-2H-pyran-2-yl)((S)-1-(4-fluorophenyl)-3,4-dihydroisoquinolin-2(1H)-yl)methanone]	0.001
N[C@H]1CCO[C@@H](C(=O)N2CCc3ccccc3[C@@H]2c2ccc(F)cc2F)C1 [Compound 5500]	0.19
O=C([C@H]1OCCN[C@@H]1CF)N1CCc2ccccc2[C@@H]1c1ccc(F)cc1 [Compound 5501]	3.86
CCCO[C@H]1CO[C@@H](C(=O)N2CCc3ccccc3[C@@H]2c2ccc(F)cc2)C[C@@H]1N [Compound 5502, ((2R,4S,5R)-4-amino-5-propoxytetrahydro-2H-pyran-2-yl)((S)-1-(4-fluorophenyl)-3,4-dihydroisoquinolin-2(1H)-yl)methanone]	0.001
CN[C@H]1C[C@H](C(=O)N2CCc3ccccc3[C@@H]2c2ccc(F)cc2)OC[C@@H]1OC [Compound 5503, ((S)-1-(4-fluorophenyl)-3,4-dihydroisoquinolin-2(1H)-yl)((2R,4S,5R)-5-methoxy-4-(methylamino)tetrahydro-2H-pyran-2-yl)methanone]	0.005
CCN[C@H]1C[C@H](C(=O)N2CCc3ccccc3[C@@H]2c2ccc(F)cc2)OC[C@@H]1OC [Compound 5504, ((2R,4S,5R)-4-(ethylamino)-5-methoxytetrahydro-2H-pyran-2-yl)((S)-1-(4-fluorophenyl)-3,4-dihydroisoquinolin-2(1H)-yl)methanone]	0.009
C[C@@]1(C(=O)N2CCc3ccccc3[C@@H]2c2ccc(F)cc2)OCCNC[C@H]1O [Compound 5505]	0.41
C[C@]1(C(=O)N2CCc3ccccc3[C@@H]2c2ccc(F)cc2)OCCNC[C@@H]1O [Compound 5506]	0.398
N[C@H]1C[C@H](C(=O)N2CCc3ccccc3[C@@H]2c2ccc(F)cc2)OC[C@@H]1OC(F)(F)F [Compound 5507, ((2R,4S,5R)-4-amino-5-(trifluoromethoxy)tetrahydro-2H-pyran-2-yl)((S)-1-(4-fluorophenyl)-3,4-dihydroisoquinolin-2(1H)-yl)methanone]	0.001
CCN[C@H]1C[C@H](C(=O)N2CCc3ccccc3[C@@H]2c2ccc(F)cc2)OC[C@H]1O [Compound 5508, ((2R,4S,5S)-4-(ethylamino)-5-hydroxytetrahydro-2H-pyran-2-yl)((S)-1-(4-fluorophenyl)-3,4-dihydroisoquinolin-2(1H)-yl)methanone]	0.03
CCO[C@H]1CO[C@@H](C(=O)N2CCc3ccccc3[C@@H]2c2ccc(F)cc2)C[C@@H]1NC [Compound 5509, ((2R,4S,5R)-5-ethoxy-4-(methylamino)tetrahydro-2H-pyran-2-yl)((S)-1-(4-fluorophenyl)-3,4-dihydroisoquinolin-2(1H)-yl)methanone]	0.001
CCN[C@H]1C[C@H](C(=O)N2CCc3ccccc3[C@@H]2c2ccc(F)cc2)OC[C@@H]1OCC [Compound 5510, ((2R,4S,5R)-5-ethoxy-4-(ethylamino)tetrahydro-2H-pyran-2-yl)((S)-1-(4-fluorophenyl)-3,4-dihydroisoquinolin-2(1H)-yl)methanone]	0.002
CC(C)(C)O[C@H]1CO[C@@H](C(=O)N2CCc3ccccc3[C@@H]2c2ccc(F)cc2)C[C@@H]1N [Compound 5511, ((2R,4S,5R)-4-amino-5-(tert-butoxy)tetrahydro-2H-pyran-2-yl)((S)-1-(4-fluorophenyl)-3,4-dihydroisoquinolin-2(1H)-yl)methanone]	0.0002
CCC(=O)N[C@H]1CO[C@@H](C(=O)N2CCc3ccccc3[C@@H]2c2ccc(F)cc2)C[C@@H]1N [Compound 5513, N-((3R,4S,6R)-4-amino-6-((S)-1-(4-fluorophenyl)-1,2,3,4-tetrahydroisoquinoline-2-carbonyl)tetrahydro-2H-pyran-3-yl)propionamide]	0.03
N[C@H]1C[C@H](C(=O)N2CCc3ccccc3[C@@H]2c2ccc(F)cc2)OC[C@@H]1NC(=O)C(F)(F)F [Compound 5514, N-((3R,4S,6R)-4-amino-6-((S)-1-(4-fluorophenyl)-1,2,3,4-tetrahydroisoquinoline-2-carbonyl)tetrahydro-2H-pyran-3-yl)-2,2,2-trifluoroacetamide]	0.024
CC(=O)N(C)[C@H]1CO[C@@H](C(=O)N2CCc3ccccc3[C@@H]2c2ccc(F)cc2)C[C@@H]1N [Compound 5516, N-((3R,4S,6R)-4-amino-6-((S)-1-(4-fluorophenyl)-1,2,3,4-tetrahydroisoquinoline-2-carbonyl)tetrahydro-2H-pyran-3-yl)-N-methylacetamide]	0.007
